Assay results published in patent publication US9018388B2, “Pesticidal compositions and processes related thereto” (Dow AgroSciences LLC, priority 2012, dated 2015).

Assays:
Assay type in all cases: in vivo
[1] = tested on: Beet Armyworm (BAW) (Spodoptera exigua); assay: Bioassay on beet armyworm (BAW), 128-well diet tray assay; details: Spodoptera exigua; Beet armyworm, 50 μg/cm^2; read-out: % Mortality BAW 50 μg/cm^2
In short: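 Second-instar Spodoptera exigua larvae, one to five per well, on artificial diet treated with 50 μg/cm^2 compound in 90:10 acetone-water and dried, eight wells per compound. Held at 25 °C, 14:10 light-dark for five to seven days; percent mortality averaged over wells.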

[2] = tested on: Corn Earworm (CEW) (Helicoverpa zea); assay: Bioassay on corn earworm (CEW), 128-well diet tray assay; details: Helicoverpa zea; Corn earworm, 50 μg/cm^2; read-out: % Mortality CEW 50 μg/cm^2
In short: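 Second-instar Helicoverpa zea larvae (one to five per well) placed on artificial diet treated with 50 μg/cm^2 compound in 90:10 acetone-water, dried, eight wells per compound. Held at 25 °C, 14:10 light-dark, five to seven days; percent mortality averaged over wells.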

[3] = tested on: Green Peach Aphid (GPA) (Myzus persicae); assay: Bioassay on green peach aphid (GPA), foliar spray on cabbage seedlings; details: 72 h, read-out: % Mortality GPA 200 ppm
Procedure: Bioassays on Green Peach Aphid (“GPA”) (Myzus persicae)
Certain molecules disclosed in this document were tested against GPA using procedures described in the following example. In the reporting of the results, the “GPA Rating Table” was used (See Table Section).
Cabbage seedlings grown in 3-inch pots, with 2-3 small (3-5 cm) true leaves, were used as test substrate. The seedlings were infested with 20-50 GPA (wingless adult and nymph stages) one day prior to chemical application. Four pots with individual seedlings were used for each treatment. Test compounds (2 mg) were dissolved in 2 mL of acetone/methanol (1:1) solvent, forming stock solutions of 1000 ppm test compound. The stock solutions were diluted 5× with 0.025% Tween 20 in H2O to obtain the solution at 200 ppm test compound. A hand-held aspirator-type sprayer was used for spraying a solution to both sides of […] leaves until runoff. Reference plants (solvent check) were sprayed with the diluent only containing 20% by volume of acetone/methanol (1:1) solvent. Treated plants were held in a holding room for three days at approximately 25° C. and ambient relative humidity (RH) prior to grading. Evaluation was conducted by counting the number of live aphids per plant under a microscope. Percent Control was measured by using Abbott's correction formula (W. S. Abbott, “A Method of Computing the Effectiveness of an Insecticide” J. Econ. Entomol. 18 (1925), pp. 265-267) as follows. Corrected%Control=100*(X−Y)/X • where • X=No. of live aphids on solvent check plants and • Y=No. of live aphids on treated plants
The results are indicated in the table entitled “Table 5: Biological Results” (See Table Section).

Compound	pest or weed control at 50 µg/cm2, 50 µg/cm2 [1] [%]	pest or weed control at 50 µg/cm2, 50 µg/cm2 [2] [%]	pest or weed control at 200 ppm [3] [%]
Cc1cccc(C)c1-n1c(-c2ccc(OC(F)(F)F)cc2)cs/c1=N\N=C\c1ccc(-c2ncn(-c3ccc(OC(F)(F)F)cc3)n2)cc1 [Compound 78C]	50 to 100	50 to 100	0 to 80
Cc1cccc(C)c1-n1c(-c2nccs2)cs/c1=N\N=C\c1ccc(-c2ncn(-c3ccc(OC(F)(F)F)cc3)n2)cc1 [Compound 75C]	50 to 100	50 to 100	0 to 80
Cc1cccc(C)c1/N=C(/N/N=C/c1ccc(-c2ncn(-c3ccc(OC(F)(F)F)cc3)n2)cc1)SCOC(=O)OC(C)C [Compound 24C]	50 to 100	50 to 100	0 to 80
Cc1cccc(Cl)c1N1/C(=N/N=C/c2ccc(-c3ncn(-c4ccc(OC(F)(F)F)cc4)n3)cc2)SCC1C (stereo not drawn) [Compound 158C]	50 to 100	50 to 100	0 to 80
Cc1cccc(C)c1/N=C(/N/N=C/c1ccc(-c2ncn(-c3ccc(OC(F)(F)F)cc3)n2)cc1)SCC(=O)N1CCN(C(=O)OC(C)(C)C)CC1 [Compound 57C]	50 to 100	50 to 100	0 to 80
COc1cc(C)c(/N=C(/N/N=C/c2ccc(-c3ncn(-c4ccc(OC(F)(F)F)cc4)n3)cc2)SCOC(=O)C(C)(C)C)c(C)c1 [Compound 40C]	50 to 100	50 to 100	0 to 80
Cc1cccc(C)c1/N=C(/N/N=C/c1ccc(-c2ncn(-c3ccc(OC(F)(F)F)cc3)n2)cc1)SCc1cccc2nsnc12 [Compound 14C]	50 to 100	50 to 100	0 to 80
Cc1ncccc1N1CCCS/C1=N\N=C\c1ccc(-c2ncn(-c3ccc(OC(F)(F)F)cc3)n2)cc1 [Compound 205C]	50 to 100	50 to 100	0 to 80
Cc1cccc(C)c1/N=C(/N/N=C/c1ccc(-c2ncn(-c3ccc(OC(F)(F)F)cc3)n2)cc1)SCc1ccc(S(C)(=O)=O)cc1 [Compound 17C]	50 to 100	50 to 100	0 to 80
CC1S/C(=N\N=C\c2ccc(-c3ncn(-c4ccc(OC(F)(F)F)cc4)n3)cc2)N(c2ccccc2C(C)C)C1=O (stereo not drawn) [Compound 88C]	50 to 100	50 to 100	0 to 80
Cc1cccc(C)c1/N=C(/N/N=C/c1ccc(-c2ncn(-c3ccc(OC(F)(F)F)cc3)n2)cc1)SCC(=O)NC[C@@H]1CCCNC1 [Compound 62C, (1Z,2E)-2-oxo-2-(((R)-piperidin-3-ylmethyl)amino)ethyl N-(2,6-dimethylphenyl)-2-(4-(1-(4-(trifluoromethoxy)phenyl)-1H-1,2,4-triazol-3-yl)benzylidene)hydrazinecarbimidothioate trifluoroacetic acid]	50 to 100	50 to 100	0 to 80
Cc1cccc(C)c1/N=C(/N/N=C/c1ccc(-c2ncn(-c3ccc(OC(F)(F)F)cc3)n2)cc1)SCc1cc2c(C(F)(F)F)nn(C)c2s1 [Compound 19C]	50 to 100	50 to 100	0 to 80
O=C1CS/C(=N\N=C\c2ccc(-c3ncn(-c4ccc(OC(F)(F)F)cc4)n3)cc2)N1c1c(F)cccc1Cl [Compound 95C]	50 to 100	50 to 100	0 to 80
Cc1cccc(C)c1-n1c(-c2ccc(C(F)(F)F)cc2)cs/c1=N\N=C\c1ccc(-c2ncn(-c3ccc(OC(F)(F)F)cc3)n2)cc1 [Compound 79C]	50 to 100	50 to 100	0 to 80
CC(=O)OCS/C(=N\c1c(C)cccc1C)N/N=C/c1ccc(-c2ncn(-c3ccc(OC(F)(F)F)cc3)n2)cc1 [Compound 31C]	50 to 100	50 to 100	0 to 80
Cc1cccc(C)c1/N=C(/N/N=C/c1ccc(-c2ncn(-c3ccc(OC(F)(F)F)cc3)n2)cc1)SCc1ccc(S(=O)(=O)Nc2ccc(F)cc2)cc1 [Compound 18C]	50 to 100	50 to 100	0 to 80

Compound	pest or weed control at 50 µg/cm2, 50 µg/cm2 [1] [%]	pest or weed control at 50 µg/cm2, 50 µg/cm2 [2] [%]	pest or weed control at 200 ppm [3] [%]
FC(F)(F)Oc1ccc(-n2cnc(-c3ccc(/C=N/N=C4\SCCN4c4ccccc4C4CC4)cc3)n2)cc1 [Compound 145C]	50 to 100	50 to 100	0 to 80
CCc1cccc(C)c1N1C(=O)CS/C1=N\N=C\c1ccc(-c2ncn(-c3ccc(OC(F)(F)F)cc3)n2)cc1 [Compound 111C]	50 to 100	50 to 100	0 to 80
CC(C)c1ccccc1N1C(=O)CCSC1=NN=Cc1ccc(-c2ncn(-c3ccc(OC(F)(F)F)cc3)n2)cc1 (stereo in doubt) [Compound 224C, (Z)-3-(2-isopropylphenyl)-2-((E)-(4-(1-(4-(trifluoromethoxy)phenyl)-1H-1,2,4-triazol-3-yl)benzylidene)hydrazono)-1,3-thiazinan-4-one]	50 to 100	50 to 100	0 to 80
CC(C)=Cc1ccccc1N1C(=O)CS/C1=N\N=C\c1ccc(-c2ncn(-c3ccc(OC(F)(F)F)cc3)n2)cc1 [Compound 121C]	50 to 100	50 to 100	0 to 80
Cc1cccc(C)c1/N=C(/N/N=C/c1ccc(-c2ncn(-c3ccc(OC(F)(F)F)cc3)n2)cc1)SCC(=O)O [Compound 47C]	50 to 100	50 to 100	0 to 80
Cc1ccccc1N1CCCS/C1=N\N=C\c1ccc(-c2ncn(-c3ccc(OC(F)(F)F)cc3)n2)cc1 [Compound 195C]	50 to 100	50 to 100	0 to 80
COc1cc(C)c(/N=C(/N/N=C/c2ccc(-c3ncn(-c4ccc(OC(F)(F)F)cc4)n3)cc2)SCC(=O)N2CCNCC2)c(C)c1 [Compound 65C]	50 to 100	50 to 100	0 to 80
CC(C)=Cc1ccccc1N1CCS/C1=N\N=C\c1ccc(-c2ncn(-c3ccc(OC(F)(F)F)cc3)n2)cc1 [Compound 151C]	50 to 100	50 to 100	0 to 80
FC(F)(F)Oc1ccc(-n2cnc(-c3ccc(/C=N/N=C4\SCCCN4c4c(Cl)cccc4C(F)(F)F)cc3)n2)cc1 [Compound 190C]	50 to 100	50 to 100	0 to 80
Cc1cccc(C)c1/N=C(/N/N=C/c1ccc(-c2ncn(-c3ccc(OC(F)(F)C(F)(F)F)cc3)n2)cc1)SCC(=O)O [Compound 49C]	50 to 100	50 to 100	0 to 80
COc1cc(C)c(N2CCS/C2=N\N=C\c2ccc(-c3ncn(-c4ccc(OC(F)(F)F)cc4)n3)cc2)c(C)c1 [Compound 138C]	50 to 100	50 to 100	0 to 80
O=C1CS/C(=N\N=C\c2ccc(-c3ncn(-c4ccc(OC(F)(F)F)cc4)n3)cc2)N1c1ccccc1-c1ccccc1 [Compound 96C]	50 to 100	50 to 100	0 to 80
COc1cc(C)c(/N=C(/N/N=C/c2ccc(-c3ncn(-c4ccc(OC(F)(F)F)cc4)n3)cc2)SCOC(=O)C2CCCC2)c(C)c1 [Compound 43C]	50 to 100	50 to 100	0 to 80
Cc1cccc(Cl)c1-n1c(C)cs/c1=N\N=C\c1ccc(-c2ncn(-c3ccc(OC(F)(F)F)cc3)n2)cc1 [Compound 174C]	50 to 100	50 to 100	0 to 80
CC(C)c1ccccc1N1CCS/C1=N\N=C\c1ccc(-c2ncn(-c3ccc(OC(F)(F)F)cc3)n2)cc1 [Compound 132C]	50 to 100	50 to 100	0 to 80
